{"source": "paper PMC5671655", "about": "“LASSBio-897 Reduces Lung Injury Induced by Silica Particles in Mice: Potential Interaction with the A2A Receptor” (Frontiers in Pharmacology, 2017)", "key": {"adenosine A2A receptor [1]": {"biological_target": "T1, adenosine A2A receptor (Homo sapiens, UniProt P29274)", "T1 construct": "gene ADORA2A; membrane preparation of HEK293 cells overexpressing the human A2A receptors", "T1 sequence (P29274 whole entry)": "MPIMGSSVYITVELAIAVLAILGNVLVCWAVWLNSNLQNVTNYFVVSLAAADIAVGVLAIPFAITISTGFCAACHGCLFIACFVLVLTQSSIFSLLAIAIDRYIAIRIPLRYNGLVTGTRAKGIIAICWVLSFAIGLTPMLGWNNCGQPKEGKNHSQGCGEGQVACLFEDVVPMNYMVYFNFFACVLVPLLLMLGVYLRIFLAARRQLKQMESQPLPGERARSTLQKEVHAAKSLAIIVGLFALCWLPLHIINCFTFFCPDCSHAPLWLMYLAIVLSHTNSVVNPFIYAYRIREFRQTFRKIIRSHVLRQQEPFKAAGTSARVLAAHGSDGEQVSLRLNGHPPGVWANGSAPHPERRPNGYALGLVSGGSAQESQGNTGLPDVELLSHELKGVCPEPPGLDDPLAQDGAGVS", "assay": "radioligand competition with [3H]-adenosine", "format": "binding"}, "5-HT transporter": {"biological_target": "T2, 5-HT transporter (Homo sapiens, UniProt P31645)", "T2 construct": "gene SLC6A4", "T2 sequence (P31645 whole entry)": "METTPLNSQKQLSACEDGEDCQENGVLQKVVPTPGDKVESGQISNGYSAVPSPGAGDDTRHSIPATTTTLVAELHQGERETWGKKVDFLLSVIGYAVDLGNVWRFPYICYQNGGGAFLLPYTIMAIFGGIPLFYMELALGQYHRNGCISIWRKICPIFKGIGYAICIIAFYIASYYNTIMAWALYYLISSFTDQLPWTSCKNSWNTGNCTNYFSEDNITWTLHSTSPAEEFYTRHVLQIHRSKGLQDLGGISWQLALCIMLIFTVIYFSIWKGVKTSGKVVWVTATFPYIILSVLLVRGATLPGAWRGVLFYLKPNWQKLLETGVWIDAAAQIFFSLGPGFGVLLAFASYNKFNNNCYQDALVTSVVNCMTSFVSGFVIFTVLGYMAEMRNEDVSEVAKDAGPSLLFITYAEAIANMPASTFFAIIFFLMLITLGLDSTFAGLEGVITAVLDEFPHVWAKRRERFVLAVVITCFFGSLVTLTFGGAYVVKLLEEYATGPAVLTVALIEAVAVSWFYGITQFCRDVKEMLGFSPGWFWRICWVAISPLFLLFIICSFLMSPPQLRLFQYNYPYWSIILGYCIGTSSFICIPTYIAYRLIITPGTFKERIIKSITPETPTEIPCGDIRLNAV", "assay": "Cerep Diversity Profile screen, single concentration […]"}, "adenosine A2A receptor [2]": {"biological_target": "T3, adenosine A2A receptor (Rattus norvegicus, UniProt P30543)", "T3 construct": "gene Adora2a; rat striatum membrane preparation", "T3 sequence (P30543 whole entry)": "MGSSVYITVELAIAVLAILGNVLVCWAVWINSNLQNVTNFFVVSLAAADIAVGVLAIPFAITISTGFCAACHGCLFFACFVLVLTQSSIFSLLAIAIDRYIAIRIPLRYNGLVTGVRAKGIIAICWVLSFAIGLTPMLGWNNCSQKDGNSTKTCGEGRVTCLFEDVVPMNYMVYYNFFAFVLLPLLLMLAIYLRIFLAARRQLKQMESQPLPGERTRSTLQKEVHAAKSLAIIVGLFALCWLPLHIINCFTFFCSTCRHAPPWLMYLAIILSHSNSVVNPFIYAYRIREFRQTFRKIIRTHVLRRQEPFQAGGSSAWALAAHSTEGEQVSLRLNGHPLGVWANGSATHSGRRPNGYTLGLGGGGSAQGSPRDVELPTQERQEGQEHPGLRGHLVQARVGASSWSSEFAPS", "assay": "radioligand competition with [3H]-CGS21680", "format": "binding"}}, "data": [{"compound": "O=C(N/N=C/c1ccsc1)c1ccc2c(c1)OCO2", "note": "[LASSBio-897]", "values": [{"measurement": "IC50", "setting": "adenosine A2A receptor [1]", "value": 11.4, "unit": "µM"}, {"measurement": "inhibition at 10 µM", "setting": "5-HT transporter", "value": 56, "unit": "%"}, {"measurement": "IC50", "setting": "adenosine A2A receptor [2]", "value": 9.3, "unit": "µM"}]}]}
